In patent US20160106439A1, “PNEUMATIC TOURNIQUET” (BIONUMERIK PHARMACEUTICALS, INC., priority 2013, published 2016):
Where two headings read alike, the source gives them in different places.

Experiments:
IGF1R = IGF1R (Homo sapiens, UniProt P08069); test: IGF1R kinase assay (ADP-glo) after pre-incubation; type: biochemical
Experimental: Prior to initiating the IGF1R kinase assays, IGF1R was incubated with Tavocept-IGF1R kinase phosphorylated the IGF1Rtide substrate using the ATP cofactor and produced ADP. The assays in half area 96-well microtiter plates were 10 μL in volume and contained IGF1R (4 ng total or 0.4 ng/μL), ATP (100 μM), IGF1Rtide substrate ([…]), and the concentrations of the various test articles as indicated. Additionally, kinase assay buffer was added to achieve a final reaction volume of 10 μL per assay. IGF1R kinase reactions were incubated for 60 minutes at 25° C. in a water bath. Following this 60 minute incubation, reactions were transferred to microplates and the kinase activity was evaluated using the ADP-glo system from Promega (this system monitors ADP produced when IGF1R phosphorylates the IGF1Rtide substrate).

TrxR/Trx system = target: T1, TrxR/Trx system (Homo sapiens, UniProt P10599); test: NADPH oxidation by TrxR and Trx; type: biochemical; conditions: increasing concentrations of the substance
T1 construct: 6xHis (N); purchased Sigma (Trx); American Diagnostica (bovine TrxR)
T1 sequence (P10599 1-105): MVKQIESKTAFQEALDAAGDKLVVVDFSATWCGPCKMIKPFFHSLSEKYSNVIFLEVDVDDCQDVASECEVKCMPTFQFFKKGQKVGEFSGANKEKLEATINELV

bovine TrxR = target: T2, bovine TrxR (Bos taurus, UniProt O62768); test: NADPH oxidation assay, Reaction A (TrxR alone); type: biochemical; conditions: without Trx, disulfide 0.5 mM
T2 construct: purchased American Diagnostica
Experimental: See, Luthman M and Holmgren A. Rat liver thioredoxin and thioredoxin reductase: purification and characterization. Biochemistry 21:6628-6633 (1982). A typical assay mixture contained buffer (50 mM potassium phosphate, pH 7.0, 1 mM EDTA), NADPH (200 μM), and bovine TrxR (1.6 μg, 0.138 μM). Assays were run with and without recombinant human Trx (4.8 μM). […] All disulfides were added to reactions as 10x solutions in buffer. The total volume of each reaction was 0.1 mL. Reactions were initiated by the addition of TrxR and were incubated at 25° C. for 40 minutes. Reactions were analyzed using a Molecular Devices SpectraMax Plus UV/vis plate reader and the activity was calculated using a 4 minute linear portion of each assay.

[1] = target: T3, recombinant human farnesyltransferase (Homo sapiens, UniProt P49354+P49356); test: Farnesyltransferase Dansyl-GCVLS fluorescence assay; type: biochemical; conditions: 25 nM FTase, 3 μM Dansyl-GCVLS, 25° C.
T3 construct: purchased Abcam
Experimental: Tavocept-inhibited human farnesyltransferase-mediated transfer of farnesylpyrophosphate to the cysteine residue in a danyslated peptide substrate of sequence glycine-cysteine-valine-leucine-serine (designated-Dansyl-GCVLS) in vitro. See, FIG. 79. The assay reactions contained 25 nM recombinant human farnesyltransferase (Abcam), 10 μM farnesylpyrophosphate (SigmaAldrich), 3 μM Dansyl-GCVLS (NeoBioScience) in Tris buffer (50 mM, pH 7.5) containing 5 mM MgCl2, 10 μM ZnCl2, and 0.2% octyl-β-D-glucopyranoside. Total assay volumes were 50 μL and the reactions were initiated by the addition of FTase (5 μL of 250 nM stock was added to 45 μL of assay components listed above). The excitation wavelength was 340 nm (a 340 nm filter with 25 nm bandpass) and the emission wavelength was […] (505 nm filter with 20 nm bandpass) and the assay temperature was 25° C. Progress curves of the transfer of the farnesylpyrophosphate to the Dansyl-GCVLS substrate are shown in FIG. 79, Panel A and relative rates of the progress curve were determined and are shown in FIG. 79, Panel B.

WT EGFR kinase = WT EGFR kinase (Homo sapiens, UniProt P00533); test: WT EGFR kinase assay (ADP-glo)
Recombinant human Trx [2] = target: T4, Recombinant human Trx (Homo sapiens, UniProt P10599); test: LC MS of Trypsin digested Trx after incubation with Tavocept, mesna or glutathione; type: binding; parameters: purchased Sigma (SigmaAldrich); host or cells: E. coli; conditions: 10 mM, 4 to 6 hours
T4 sequence (P10599 1-105): T1 sequence (P10599 1-105)

Recombinant human Trx [3] = target: T4, Recombinant human Trx; type: biochemical; parameters: 6xHis (N); purchased Sigma (Trx); American Diagnostica (bovine TrxR); conditions: Reaction B; disulfide 0.5 mM
Experimental: See, Luthman M and Holmgren A. Rat liver thioredoxin and thioredoxin reductase: purification and characterization. […] All disulfides were added to reactions as 10x solutions in buffer. The total volume of each reaction was 0.1 mL. Reactions were initiated by the addition of TrxR and were incubated at 25° C. for 40 minutes. Reactions were analyzed using a Molecular Devices SpectraMax Plus UV/vis plate reader and the activity was calculated using a 4 minute linear portion of each assay.

[4] = read-out: inhibition of WT EGFR kinase activity

WT EGFR kinase, sequence (P00533 25-1210): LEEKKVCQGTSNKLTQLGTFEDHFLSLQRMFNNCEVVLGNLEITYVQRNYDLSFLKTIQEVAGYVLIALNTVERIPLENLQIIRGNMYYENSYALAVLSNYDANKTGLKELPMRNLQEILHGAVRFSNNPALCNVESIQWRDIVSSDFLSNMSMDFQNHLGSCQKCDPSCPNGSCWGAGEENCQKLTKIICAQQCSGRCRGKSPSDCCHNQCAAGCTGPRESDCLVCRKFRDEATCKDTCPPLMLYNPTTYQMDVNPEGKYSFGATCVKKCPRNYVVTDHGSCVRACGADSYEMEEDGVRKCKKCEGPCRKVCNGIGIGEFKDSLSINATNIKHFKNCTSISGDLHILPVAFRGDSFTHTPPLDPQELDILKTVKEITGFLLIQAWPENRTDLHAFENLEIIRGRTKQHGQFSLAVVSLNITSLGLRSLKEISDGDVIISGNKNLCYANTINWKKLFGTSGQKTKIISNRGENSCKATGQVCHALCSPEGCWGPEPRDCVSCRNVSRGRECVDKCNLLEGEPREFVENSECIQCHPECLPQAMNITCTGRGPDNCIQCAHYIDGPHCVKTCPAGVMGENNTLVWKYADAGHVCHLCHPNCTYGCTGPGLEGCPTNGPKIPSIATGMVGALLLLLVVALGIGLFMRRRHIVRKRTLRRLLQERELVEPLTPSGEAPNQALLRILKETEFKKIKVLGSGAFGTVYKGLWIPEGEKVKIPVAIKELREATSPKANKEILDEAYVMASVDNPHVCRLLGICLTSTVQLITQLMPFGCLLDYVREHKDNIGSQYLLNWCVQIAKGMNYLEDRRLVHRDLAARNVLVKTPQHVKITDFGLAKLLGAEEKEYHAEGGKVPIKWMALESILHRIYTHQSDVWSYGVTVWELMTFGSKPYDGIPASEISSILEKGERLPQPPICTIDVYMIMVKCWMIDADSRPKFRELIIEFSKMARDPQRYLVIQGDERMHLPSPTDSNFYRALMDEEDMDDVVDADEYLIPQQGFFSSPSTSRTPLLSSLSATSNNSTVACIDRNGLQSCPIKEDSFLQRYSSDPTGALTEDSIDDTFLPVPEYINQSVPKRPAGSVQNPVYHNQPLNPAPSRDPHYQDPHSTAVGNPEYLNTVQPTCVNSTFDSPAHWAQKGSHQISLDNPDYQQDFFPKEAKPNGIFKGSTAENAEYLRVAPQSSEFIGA
IGF1R, sequence (P08069 31-1367): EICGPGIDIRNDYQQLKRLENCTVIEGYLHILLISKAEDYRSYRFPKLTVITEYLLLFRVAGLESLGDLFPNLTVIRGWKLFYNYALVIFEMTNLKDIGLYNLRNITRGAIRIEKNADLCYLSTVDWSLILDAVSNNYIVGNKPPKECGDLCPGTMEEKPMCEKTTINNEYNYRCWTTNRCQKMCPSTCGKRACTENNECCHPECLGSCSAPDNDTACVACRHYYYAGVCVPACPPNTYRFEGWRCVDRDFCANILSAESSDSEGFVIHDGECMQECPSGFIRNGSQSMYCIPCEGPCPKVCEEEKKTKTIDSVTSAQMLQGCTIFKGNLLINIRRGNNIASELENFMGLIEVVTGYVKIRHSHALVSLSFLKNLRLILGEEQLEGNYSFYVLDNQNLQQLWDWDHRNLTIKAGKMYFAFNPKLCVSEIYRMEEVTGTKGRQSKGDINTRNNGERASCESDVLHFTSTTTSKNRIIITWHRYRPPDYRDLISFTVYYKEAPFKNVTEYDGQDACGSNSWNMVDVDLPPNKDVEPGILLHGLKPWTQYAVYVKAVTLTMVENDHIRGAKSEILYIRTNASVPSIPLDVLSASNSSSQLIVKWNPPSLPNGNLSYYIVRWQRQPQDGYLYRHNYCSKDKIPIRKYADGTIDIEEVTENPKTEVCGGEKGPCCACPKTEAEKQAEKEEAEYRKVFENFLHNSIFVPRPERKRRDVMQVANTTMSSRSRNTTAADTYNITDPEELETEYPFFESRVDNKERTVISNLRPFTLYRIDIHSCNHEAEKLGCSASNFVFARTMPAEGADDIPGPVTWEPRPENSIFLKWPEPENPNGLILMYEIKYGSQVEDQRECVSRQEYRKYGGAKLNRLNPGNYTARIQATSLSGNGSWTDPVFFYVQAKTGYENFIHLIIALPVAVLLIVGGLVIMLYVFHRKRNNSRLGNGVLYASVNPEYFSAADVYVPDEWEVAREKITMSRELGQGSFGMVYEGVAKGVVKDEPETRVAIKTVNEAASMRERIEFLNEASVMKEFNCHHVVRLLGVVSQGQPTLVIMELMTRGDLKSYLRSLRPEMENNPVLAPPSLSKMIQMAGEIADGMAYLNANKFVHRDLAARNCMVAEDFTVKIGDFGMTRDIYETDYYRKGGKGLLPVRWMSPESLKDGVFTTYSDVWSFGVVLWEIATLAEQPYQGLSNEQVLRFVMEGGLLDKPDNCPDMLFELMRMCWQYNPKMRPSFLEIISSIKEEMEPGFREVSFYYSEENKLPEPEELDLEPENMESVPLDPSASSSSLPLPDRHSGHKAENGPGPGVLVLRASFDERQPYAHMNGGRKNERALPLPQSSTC
T3 sequence (P49356 whole entry, one chain of several): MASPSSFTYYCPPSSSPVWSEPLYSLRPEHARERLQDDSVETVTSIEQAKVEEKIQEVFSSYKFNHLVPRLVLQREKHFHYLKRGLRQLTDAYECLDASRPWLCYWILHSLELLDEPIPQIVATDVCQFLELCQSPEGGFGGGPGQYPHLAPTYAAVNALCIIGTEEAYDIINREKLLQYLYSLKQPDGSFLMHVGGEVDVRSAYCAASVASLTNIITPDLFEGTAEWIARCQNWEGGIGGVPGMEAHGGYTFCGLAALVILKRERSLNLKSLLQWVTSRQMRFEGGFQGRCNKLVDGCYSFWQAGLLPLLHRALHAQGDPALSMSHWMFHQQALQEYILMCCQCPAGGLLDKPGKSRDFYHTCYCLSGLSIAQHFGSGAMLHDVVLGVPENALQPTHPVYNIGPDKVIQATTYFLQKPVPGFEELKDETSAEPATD
T2 sequence (O62768 whole entry): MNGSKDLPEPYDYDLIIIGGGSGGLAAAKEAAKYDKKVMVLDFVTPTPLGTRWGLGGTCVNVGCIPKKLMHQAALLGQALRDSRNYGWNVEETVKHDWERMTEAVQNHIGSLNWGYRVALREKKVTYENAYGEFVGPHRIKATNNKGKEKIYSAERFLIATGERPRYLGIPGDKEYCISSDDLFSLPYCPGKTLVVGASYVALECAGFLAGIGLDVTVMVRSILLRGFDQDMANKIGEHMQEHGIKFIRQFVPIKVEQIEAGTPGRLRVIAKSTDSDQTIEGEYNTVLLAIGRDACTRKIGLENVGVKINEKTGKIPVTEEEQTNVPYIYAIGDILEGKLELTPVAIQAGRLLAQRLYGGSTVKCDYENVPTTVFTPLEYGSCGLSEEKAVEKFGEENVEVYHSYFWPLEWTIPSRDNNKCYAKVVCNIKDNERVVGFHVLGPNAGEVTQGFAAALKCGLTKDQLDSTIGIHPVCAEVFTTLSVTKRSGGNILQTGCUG

O=S(=O)([O-])CCSSCCS(=O)(=O)[O-].[Na+].[Na+] [Tavocept, disodium 2,2′-dithio-bis-ethane sulfonate]
loss of IGF1R kinase activity (IGF1R; 20 mM Tavocept pre-incubated with IGF1R for 24 hours, 100 μM ATP): approximately 33%
loss of IGF1R kinase activity (IGF1R; other concentrations and pre-incubation times): ≤ 10%
NADPH oxidation by TrxR and Trx (TrxR/Trx system): increases
Reduction of disulfide by TrxR alone (bovine TrxR): did not detectably reduce
Inhibition of farnesylation [1]: inhibits farnesylation in a concentration-dependent manner
potentiation of Erlotinib inhibition of WT EGFR kinase activity (WT EGFR kinase; 10 μM ATP): slightly potentiated
inhibition of WT EGFR kinase (WT EGFR kinase; 100 μM ATP, physiological concentrations (<20 mM)): did not notably inhibit
IC50 (WT EGFR kinase; IC50 on WT EGFR kinase activity, 10 μM ATP): 24.3 ± 3.7 mM
IC50 (WT EGFR kinase; IC50 on WT EGFR kinase activity, 100 μM ATP): ≥ 40 mM
IC50 (WT EGFR kinase; read-out: IC50 on WT EGFR kinase activity, 10 μM ATP): 24.3 mM
inhibition at 10000 µM (WT EGFR kinase; [4]): 39%
inhibition at 20000 µM (WT EGFR kinase; [4]): 44%
Mesna-Cysteine Adduct Detected? (Recombinant human Trx [2]; fragment CMPTFQFFK (cys73)): Yes
Mesna-Cysteine Adduct Detected? (Recombinant human Trx [2]; fragment LVVVDFSATWCGPCK (active site cys32 and cys35)): No
Mesna-Cysteine Adduct Detected? (Recombinant human Trx [2]; fragment YSNVIFLEVDVDDCQDVASECEVK (cys62 and cys69)): Yes
Reduction of disulfide by Trx in the presence of TrxR and NADPH (Recombinant human Trx [3]): readily reduced
